Experimental data published in PubChem BioAssay AID328 (DTP/NCI, 2004).
Where “and” joins values, the source holds several entries; their conditions need not be identical. Identical values can stand only once. Inconclusive results and toxic doses are left out.

Tested on: BDF1 mice, P388 leukemia ip, median survival T/C
Assay: NCI In Vivo Anticancer Drug Screen. Data for tumor model P388 Leukemia (intraperitoneal) in B6D2F1 (BDF1) mice
Details: endpoint: median survival time, higher = longer survival
How it was run: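 In tumour-bearing mice, survival after compound treatment is set against the vehicle group and given as a quotient.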

[1] = dose: 100.0 mg/kg/injection, schedule: Q01DX009 (ip), vehicle: saline with Tween-80
[2] = dose: 100.0 mg/kg/injection, schedule: Q04DX003 (ip), vehicle: saline with Tween-80
[3] = dose: 200.0 mg/kg/injection, schedule: Q04DX003 (ip), vehicle: saline with Tween-80
[4] = dose: 400.0 mg/kg/injection, schedule: Q04DX003 (ip), vehicle: saline with Tween-80

For N#Cc1ccc(-c2ccc(C#N)cc2Br)c(Br)c1, the T/C (dose: 22.0 mg/kg/injection, schedule: Q01DX009 (ip), vehicle: Klucel (hydroxypropylcellulose) (HPC)) was 92 % of control, the T/C (dose: 25.0 mg/kg/injection, schedule: Q01DX009 (ip), vehicle: Klucel (hydroxypropylcellulose) (HPC)) was 110 % of control and the T/C (dose: 33.0 mg/kg/injection, schedule: Q01DX009 (ip), vehicle: Klucel (hydroxypropylcellulose) (HPC)) was 95 % of control. The T/C (dose: 50.0 mg/kg/injection, schedule: Q01DX009 (ip), vehicle: Klucel (hydroxypropylcellulose) (HPC)) was 100 % of control, the T/C (dose: 75.0 mg/kg/injection, schedule: Q01DX009 (ip), vehicle: Klucel (hydroxypropylcellulose) (HPC)) was 89 % of control and the T/C (dose: 100.0 mg/kg/injection, schedule: Q01DX009 (ip), vehicle: Klucel (hydroxypropylcellulose) (HPC)) was 88 % of control and 110 % of control. The T/C (dose: 100.0 mg/kg/injection, schedule: Q04DX003 (ip), vehicle: Klucel (hydroxypropylcellulose) (HPC)) was 95 % of control, the T/C (dose: 200.0 mg/kg/injection, schedule: Q04DX003 (ip), vehicle: Klucel (hydroxypropylcellulose) (HPC)) was 100 % of control and the T/C (dose: 400.0 mg/kg/injection, schedule: Q04DX003 (ip), vehicle: Klucel (hydroxypropylcellulose) (HPC)) was 100 % of control.

In the case of NC(Cc1ccc(OC2CCCC2)c(N(CCCl)CCCl)c1)C(=O)O (configuration not stated), the T/C (dose: 0.5 mg/kg/injection, schedule: Q04DX003 (ip), vehicle: Klucel (hydroxypropylcellulose) (HPC)) is reported as 104 % of control, the T/C (dose: 1.0 mg/kg/injection, schedule: Q04DX003 (ip), vehicle: Klucel (hydroxypropylcellulose) (HPC)) is reported as 118 % of control and the T/C (dose: 2.5 mg/kg/injection, schedule: Q04DX003 (ip), vehicle: saline) is reported as 195 % of control. The T/C (dose: 5.0 mg/kg/injection, schedule: Q04DX003 (ip), vehicle: saline) was 227 % of control, the T/C (dose: 7.5 mg/kg/injection, schedule: Q04DX003 (ip), vehicle: saline) was 163 % of control and the T/C (dose: 15.0 mg/kg/injection, schedule: Q04DX003 (ip), vehicle: other) was 179 % of control. The T/C (dose: 15.0 mg/kg/injection, schedule: Q04DX003 (ip), vehicle: saline) was 154 % of control, the T/C (dose: 20.0 mg/kg/injection, schedule: Q04DX003 (ip), vehicle: other) was 87 % of control and the T/C (dose: 30.0 mg/kg/injection, schedule: Q04DX003 (ip), vehicle: saline) was 168 % of control.

For O=C1CCCC(=O)N1CCCCCCN1C(=O)CCCC1=O, the T/C (dose: 50.0 mg/kg/injection, schedule: Q01DX009 (ip), vehicle: saline with Tween-80) was 104 % of control and the T/C [1] was 112 % of control.

With CC(=O)OC1CC(OC2C(O)CC(OC3C(O)CC(OC4CCC5(C)C(CCC6C5CCC5(C)C(C7=CC(=O)OC7)C(O)CC65O)C4)OC3C)OC2C)OC(C)C1OC1OC(CO)C(O)C(O)C1O (configuration not stated) the T/C (dose: 12.5 mg/kg/injection, schedule: Q01DX010 (ip), vehicle: carboxymethylcellulose (CMC)) was 109 % of control, the T/C (dose: 12.5 mg/kg/injection, schedule: Q04DX003 (ip), vehicle: Klucel (hydroxypropylcellulose) (HPC)) was 110 % of control and the T/C (dose: 25.0 mg/kg/injection, schedule: Q01DX010 (ip), vehicle: carboxymethylcellulose (CMC)) was 95 % of control. For the same molecule, the T/C (dose: 25.0 mg/kg/injection, schedule: Q04DX003 (ip), vehicle: Klucel (hydroxypropylcellulose) (HPC)) was 120 % of control.

With O=C(Nc1ccc(C2=NCCN2)cc1)c1ccc(C(=O)Nc2ccc(C3=NCCN3)cc2)c(F)c1 the T/C [2] was 172 % of control, the T/C [3] was 213 % of control and the T/C (dose: 264.0 mg/kg/injection, schedule: Q04DX003 (ip), vehicle: saline with Tween-80) was 226 % of control. The T/C [4] was 250 % of control and 221 % of control and the T/C (dose: 600.0 mg/kg/injection, schedule: Q04DX003 (ip), vehicle: saline with Tween-80) was 191 % of control.

In the case of CNC(=O)OCc1c(COC(=O)NC)c(-c2ccc(Cl)cc2Cl)n2c1CCC2, the T/C (dose: 100.0 mg/kg/injection, schedule: Q01DX009 (ip), vehicle: other) is reported as 158 % of control.

O=C(O)c1ccccc1C(=O)NNC(=O)c1ccccc1C(=O)O was tested, and the T/C [1] was 100 % of control, the T/C [2] was 90 % of control and the T/C (dose: 200.0 mg/kg/injection, schedule: Q01DX009 (ip), vehicle: saline with Tween-80) was 95 % of control. For the same molecule, the T/C [3] was 113 % of control, the T/C (dose: 400.0 mg/kg/injection, schedule: Q01DX009 (ip), vehicle: saline with Tween-80) was 90 % of control and the T/C [4] was 109 % of control.

C[N+](C)(C)c1ncnc2nc[nH]c12 was tested, and the T/C (dose: 15.0 mg/kg/injection, schedule: Q01DX010 (ip), vehicle: saline) was 91 % of control and 100 % of control, the T/C (dose: 30.0 mg/kg/injection, schedule: Q01DX010 (ip), vehicle: saline) was 100 % of control and 104 % of control and the T/C (dose: 60.0 mg/kg/injection, schedule: Q01DX010 (ip), vehicle: saline) was 91 % of control and 100 % of control. For the same molecule, the T/C (dose: 100.0 mg/kg/injection, schedule: Q01DX001 (ip), vehicle: saline) was 100 % of control, the T/C (dose: 120.0 mg/kg/injection, schedule: Q01DX010 (ip), vehicle: saline) was 91 % of control and 95 % of control and the T/C (dose: 200.0 mg/kg/injection, schedule: Q01DX001 (ip), vehicle: saline) was 110 % of control.
